Assay results as given in patent US9212173B2, “Pyrazole aminopyrimidine derivatives as LRRK2 modulators” (Genentech, Inc., priority 2012, dated 2015).
pKi: −log10 of the molar value.

target: LRRK2 (Homo sapiens (Human), UniProt Q5S007, G2019S); assay: In Vitro LRRK2 Assay (LRRK2 Ki); format: biochemical
Procedure: In Vitro LRRK2 Lanthascreen Binding Assay
This assay was used to determine a compound's potency in inhibiting activity of LRRK2 by determining, Kiapp, IC50, or percent inhibition values.
Binding of the Alexa Fluor® “tracer” to a kinase is detected by addition of a Eu-labeled anti-GST antibody.
12 pt curve. […] Stamp 5 ul to assay plate. Final top test concentration 100 uM
In Reaction Buffer, 5 ul of DMSO (3%) was added to total and blank wells and 5 ul of Eu-labeled anti-GST antibody (6 nM) was added to blank wells. Add 5 ul LRRK2 (30 nM)/Eu-labeled anti-GST antibody (6 nM) mix to compound and total wells.
Incubate plates at room temperature for 1 hour on a plate shaker (gentle shaking). Read on Perkin Elmer EnVision reader HTRF protocol
Subtract mean background values from all data points. Calculate % of control for each test value. Plot % of control vs Compound concentration. Calculate Ki Value (xlfit curve fitting-Morrison equation). Results expressed as a Ki in μM. Equation for Ki: Y=V0*(1−((x+Ki*(1+S/Km)+Et)/(2*Et)−(((x+Ki*(1+S/Km)+Et)^2−(4*Et*x))^0.5)/(2*Et)))
This assay was used to determine a compound's potency in inhibiting activity of LRRK2 by determining, Kiapp, IC50, or percent inhibition values. In a polypropylene plate, LRRK2, fluorescently-labeled peptide substrate, ATP and test compound were incubated together. Using a LabChip 3000 (Caliper Life Sciences), after the reaction the substrate was separated by capillary electrophoresis into two populations: phosphorylated and unphosphorylated. The relative amounts of each were quantitated by fluorescence intensity. LRRK2 Ki was determined according to the equation: Y=V0*(1−((x+Ki*(1+S/Km)+Et)/(2*Et)−(((x+Ki*(1+S/Km)+Et)^2−(4*Et*x))^0.5)/(2*Et))).
Ki values in Table 4 and elsewhere herein are shown in μM.
For serial dilutions, 34.6 μl DMSO was added to columns 3-24.
In Complete Reaction Buffer, substrate was diluted to 4 μM. Equal volumes of Complete Reaction Buffer and 4 μM substrate were combined to obtain the blank. Equal volumes of Complete Reaction Buffer and 4 μM substrate were combined and to the combined solution was added 2× final LRRK2 concentration.
To a 50 μl polypropylene plate, 5 μl/well buffer/substrate was added by hand to Blank wells. A Biomek FX was used to start the kinase reaction (“PLK SAR 23 ATP”). The following were added to the appropriate wells:
The plate was incubated for 2 hours in the dark. Biomek FX was used to stop the kinase reaction (“PLK Stop”), and 10 μl/well Stop solution was added to the Assay Plate. Results were read on the LabChip 3000.
The LabChip 3000 was run using the job “LRRK2 IC50” with the following job settings: […]

Sequence of LRRK2 (Q5S007 whole entry G2019S): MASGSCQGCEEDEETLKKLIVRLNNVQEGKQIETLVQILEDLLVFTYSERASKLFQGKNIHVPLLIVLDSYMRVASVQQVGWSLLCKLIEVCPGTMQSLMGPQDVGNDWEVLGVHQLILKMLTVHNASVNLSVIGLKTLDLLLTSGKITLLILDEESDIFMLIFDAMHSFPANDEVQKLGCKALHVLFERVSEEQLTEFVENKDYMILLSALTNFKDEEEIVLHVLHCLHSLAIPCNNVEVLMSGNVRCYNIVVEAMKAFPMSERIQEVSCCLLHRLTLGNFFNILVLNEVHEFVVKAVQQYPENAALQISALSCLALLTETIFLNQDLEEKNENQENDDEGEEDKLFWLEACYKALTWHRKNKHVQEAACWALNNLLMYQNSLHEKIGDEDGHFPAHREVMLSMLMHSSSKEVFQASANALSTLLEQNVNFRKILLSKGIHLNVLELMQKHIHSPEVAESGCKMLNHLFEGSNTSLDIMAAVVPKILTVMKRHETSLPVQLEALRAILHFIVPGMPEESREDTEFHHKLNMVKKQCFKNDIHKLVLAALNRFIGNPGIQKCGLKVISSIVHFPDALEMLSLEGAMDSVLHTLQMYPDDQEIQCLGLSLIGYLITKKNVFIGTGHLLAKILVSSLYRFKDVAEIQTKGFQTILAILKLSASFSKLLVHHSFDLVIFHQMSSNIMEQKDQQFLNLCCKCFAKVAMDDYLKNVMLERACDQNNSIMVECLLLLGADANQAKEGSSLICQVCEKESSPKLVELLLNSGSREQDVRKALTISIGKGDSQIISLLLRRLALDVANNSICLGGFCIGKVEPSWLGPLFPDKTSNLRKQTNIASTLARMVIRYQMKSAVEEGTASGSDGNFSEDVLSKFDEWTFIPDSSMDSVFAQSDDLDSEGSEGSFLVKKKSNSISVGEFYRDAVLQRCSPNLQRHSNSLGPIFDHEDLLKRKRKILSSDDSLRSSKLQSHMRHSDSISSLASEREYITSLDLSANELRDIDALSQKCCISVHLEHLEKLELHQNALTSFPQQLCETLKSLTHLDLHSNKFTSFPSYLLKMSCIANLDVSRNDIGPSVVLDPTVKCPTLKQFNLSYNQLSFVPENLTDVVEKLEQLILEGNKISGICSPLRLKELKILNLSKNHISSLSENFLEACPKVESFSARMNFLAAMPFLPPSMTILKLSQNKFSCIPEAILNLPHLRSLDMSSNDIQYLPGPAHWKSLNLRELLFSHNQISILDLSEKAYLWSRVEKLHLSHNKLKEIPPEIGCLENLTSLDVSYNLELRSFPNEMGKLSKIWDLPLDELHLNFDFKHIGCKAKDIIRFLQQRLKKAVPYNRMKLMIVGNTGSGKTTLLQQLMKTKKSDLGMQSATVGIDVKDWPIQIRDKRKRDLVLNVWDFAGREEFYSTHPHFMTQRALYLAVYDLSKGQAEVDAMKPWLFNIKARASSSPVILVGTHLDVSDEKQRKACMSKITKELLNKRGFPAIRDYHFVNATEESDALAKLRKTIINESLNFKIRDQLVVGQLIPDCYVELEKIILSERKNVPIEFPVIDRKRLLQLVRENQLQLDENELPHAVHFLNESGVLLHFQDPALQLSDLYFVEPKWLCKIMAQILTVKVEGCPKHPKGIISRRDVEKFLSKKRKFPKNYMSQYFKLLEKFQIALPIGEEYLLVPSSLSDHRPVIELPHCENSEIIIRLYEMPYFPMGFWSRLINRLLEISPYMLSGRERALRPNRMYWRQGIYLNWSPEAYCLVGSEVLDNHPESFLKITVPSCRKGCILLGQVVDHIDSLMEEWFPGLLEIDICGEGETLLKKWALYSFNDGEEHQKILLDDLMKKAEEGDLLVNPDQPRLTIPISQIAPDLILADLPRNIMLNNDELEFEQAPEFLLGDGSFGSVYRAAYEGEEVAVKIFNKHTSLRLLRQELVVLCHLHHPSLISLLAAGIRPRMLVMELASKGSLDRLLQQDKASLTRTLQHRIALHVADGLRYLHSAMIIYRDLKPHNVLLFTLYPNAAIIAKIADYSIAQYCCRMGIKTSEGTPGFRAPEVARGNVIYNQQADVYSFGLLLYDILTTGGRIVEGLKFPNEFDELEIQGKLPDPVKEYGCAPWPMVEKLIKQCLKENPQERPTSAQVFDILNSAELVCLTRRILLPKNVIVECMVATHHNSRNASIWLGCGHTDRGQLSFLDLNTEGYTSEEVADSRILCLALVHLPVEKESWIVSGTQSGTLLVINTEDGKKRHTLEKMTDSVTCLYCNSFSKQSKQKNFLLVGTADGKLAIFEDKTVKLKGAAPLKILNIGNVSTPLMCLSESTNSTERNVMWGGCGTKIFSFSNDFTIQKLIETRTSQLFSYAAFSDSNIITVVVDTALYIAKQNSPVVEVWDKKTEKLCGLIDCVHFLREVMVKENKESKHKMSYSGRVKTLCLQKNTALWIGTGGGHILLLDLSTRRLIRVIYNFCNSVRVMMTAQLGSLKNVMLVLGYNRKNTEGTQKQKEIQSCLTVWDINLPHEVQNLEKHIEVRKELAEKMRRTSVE

pKi	Compound
7.89	CNc1nc(Nc2cn(C(C)(C)CC#N)nc2C)ncc1C(F)(F)F [Example 41, 3-methyl-3-(3-methyl-4-((4-(methylamino)-5-(trifluoromethyl)pyrimidin-2-yl)amino)-1H-pyrazol-1-yl)butanenitrile]
8.39	CCC(C#N)Cn1cc(Nc2ncc(C(F)(F)F)c(NC)n2)c(C)n1 (stereo not drawn) [Example 42, 2-((3-methyl-4-((4-(methylamino)-5-(trifluoromethyl)pyrimidin-2-yl)amino)-1H-pyrazol-1-yl)methyl)butanenitrile]
8.07	CNc1nc(Nc2cc(C(C)(C)C#N)nn2C)ncc1C(F)(F)F [Example 45, 2-methyl-2-(1-methyl-5-((4-(methylamino)-5-(trifluoromethyl)pyrimidin-2-yl)amino)-1H-pyrazol-3-yl)propanenitrile]
8.52	Cc1nn(C(C)(C)C#N)cc1Nc1ncc(C#N)c(NC2CC2)n1 [Example 46, 2-((1-(2-cyanopropan-2-yl)-3-methyl-1H-pyrazol-4-yl)amino)-4-(cyclopropylamino)pyrimidine-5-carbonitrile]
7.61	CCNc1nc(Nc2cc(C#N)nn2C)ncc1C(F)(F)F [Example 50, 5-((4-(ethylamino)-5-(trifluoromethyl)pyrimidin-2-yl)amino)-1-methyl-1H-pyrazole-3-carbonitrile]

Compound	pKi
CCNc1nc(Nc2cc(C(C)(C)C#N)nn2C)ncc1C(F)(F)F [Example 44, 2-(5-((4-(ethylamino)-5-(trifluoromethyl)pyrimidin-2-yl)amino)-1-methyl-1H-pyrazol-3-yl)-2-methylpropanenitrile]	9.15
